Measurements taken from patent publication US8609682B2 (priority 2008, dated 2013).

Key:
[1] = molecular target: kappa/delta opioid receptors (Mus musculus, UniProt P32300+P33534)
[2] = molecular target: mu/delta opioid receptors (Mus musculus, UniProt P32300+P42866); conditions: Mu/delta cells
delta opioid receptor = delta opioid receptor (Mus musculus, UniProt P32300); conditions: Delta cells
mice [3] = experiment: Radiant heat tail flick antinociception; format: in vivo, mouse
mice [4] = conditions: i.c.v. morphine-infused mice; cited from earlier work
mice [5] = conditions: chronic i.c.v. morphine; cited from earlier work
mice [6] = experiment: Conditioned place preference (CPP)
[7] = molecular target: T1, mu/kappa opioid heterodimers (Mus musculus, UniProt P33534+P42866); format: cell-based, murine
T1 construct: expressed in transfected cells

mu opioid receptor = molecular target: T2, mu opioid receptor (Mus musculus, UniProt P42866); experiment: Ca2+ release, HEK-293 mu cells; format: cell-based, murine
T2 construct: expressed in transfected cells
T2 sequence (P42866 whole entry): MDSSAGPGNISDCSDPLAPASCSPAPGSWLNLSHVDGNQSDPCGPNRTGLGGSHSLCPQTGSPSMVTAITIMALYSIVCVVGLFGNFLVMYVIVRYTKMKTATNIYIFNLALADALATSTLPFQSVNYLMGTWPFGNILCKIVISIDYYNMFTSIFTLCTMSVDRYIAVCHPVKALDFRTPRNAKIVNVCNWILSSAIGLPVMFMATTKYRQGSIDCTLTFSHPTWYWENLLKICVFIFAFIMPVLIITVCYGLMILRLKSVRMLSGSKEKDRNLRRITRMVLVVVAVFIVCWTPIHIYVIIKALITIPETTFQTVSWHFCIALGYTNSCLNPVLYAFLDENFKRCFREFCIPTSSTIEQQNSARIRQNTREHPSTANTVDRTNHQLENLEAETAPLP

Sequence of mu/delta opioid receptors (P32300 whole entry): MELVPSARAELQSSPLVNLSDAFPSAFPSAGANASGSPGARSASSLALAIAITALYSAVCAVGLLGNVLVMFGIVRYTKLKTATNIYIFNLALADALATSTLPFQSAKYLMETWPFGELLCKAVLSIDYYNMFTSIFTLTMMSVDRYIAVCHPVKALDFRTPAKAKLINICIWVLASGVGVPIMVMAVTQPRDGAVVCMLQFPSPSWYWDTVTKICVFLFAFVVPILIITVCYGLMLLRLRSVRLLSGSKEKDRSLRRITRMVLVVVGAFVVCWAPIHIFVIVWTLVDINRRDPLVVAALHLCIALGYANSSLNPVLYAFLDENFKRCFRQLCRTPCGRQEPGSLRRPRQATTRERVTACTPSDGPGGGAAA
Sequence of mu/delta opioid receptors (P42866 whole entry): as the sequence (P42866 whole entry) above
T1 sequence (P42866 whole entry): as above
T1 sequence (P33534 whole entry): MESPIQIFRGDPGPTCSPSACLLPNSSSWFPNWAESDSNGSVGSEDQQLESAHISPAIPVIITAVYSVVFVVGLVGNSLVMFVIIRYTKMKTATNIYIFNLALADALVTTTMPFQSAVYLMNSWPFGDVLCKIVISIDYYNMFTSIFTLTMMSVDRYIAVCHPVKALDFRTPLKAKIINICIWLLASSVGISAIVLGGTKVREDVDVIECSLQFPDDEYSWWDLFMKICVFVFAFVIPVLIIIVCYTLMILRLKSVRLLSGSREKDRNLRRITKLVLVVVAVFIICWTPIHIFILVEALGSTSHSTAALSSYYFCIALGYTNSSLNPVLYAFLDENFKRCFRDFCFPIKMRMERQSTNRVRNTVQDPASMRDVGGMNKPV
Sequence of kappa/delta opioid receptors (P33534 whole entry): as above
Sequence of kappa/delta opioid receptors (P32300 whole entry): as the sequence (P32300 whole entry) above
Sequence of delta opioid receptor (P32300 whole entry): as above

DPDPE
AUCpeak (RFU X seconds), Ca2+ release [1]: 10153 ± 1479
AUCpeak (RFU X seconds), Ca2+ release [2]: 10504 ± 969 RFU X seconds
AUCpeak (RFU X seconds), Ca2+ release (delta opioid receptor): 8319 ± 1117 RFU X seconds

Oc1ccc2c3c1O[C@H]1c4[nH]c5c(c4C[C@@]4(O)[C@@H](C2)N(CC2CC2)CC[C@]314)C[C@@]1(O)[C@H]2Cc3ccc(O)c4c3[C@@]1(CCN2CC1CC1)[C@H]5O4 [norBNI, norbinaltorphimine, reference compound]
peak time of antagonist effect (mice [3]): 20 min

CN1CC[C@]23c4c5ccc(O)c4O[C@H]2[C@@H](O)C=C[C@H]3[C@H]1C5 [morphine, reference compound]
time of peak antinociception (mice [3]; i.v., preliminary studies, ICR mice): 15 min
ED50 (95% CI) (mice [3]; i.v., tail flick): 420 (378-469) nmol
naloxone-induced withdrawal jumping, previous studies (mice [4]): 100 jumps in 10 min
development of tolerance, previous studies, same protocol (mice [5]): 6 fold
place preference (mice [6]; 1200 nmol/kg): strong place preference
place preference with naloxone (mice [6]; morphine 1200 nmol/kg plus naloxone 300 nmol/kg): can be blocked by naloxone

C[C@@H](NC(=O)[C@@H](N)Cc1ccc(O)cc1)C(=O)NCC(=O)N(C)[C@@H](Cc1ccccc1)C(=O)NCCO [DAMGO, reference compound]
AUCpeak (RFU X seconds), Ca2+ release [7]: 5562 ± 668
AUCpeak (RFU X seconds), Ca2+ release (mu opioid receptor): 9989 ± 702 RFU X seconds
AUCpeak (RFU X seconds), Ca2+ release [2]: 12054 ± 1281 RFU X seconds

Oc1ccc2c3c1O[C@H]1c4[nH]c5ccccc5c4C[C@@]4(O)[C@@H](C2)N(CC2CC2)CC[C@]314 [NTI, naltrindole, reference compound]
peak time of antagonist effect (mice [3]): 20 min

Cys2-Tyr3-Orn5-Pen7-amide [CTOP, reference compound]
peak time of antagonist effect (mice [3]): 20 min
